The source of these data is patent US8039455B2, “Macrocyclic compounds useful as BACE inhibitors” (Novartis AG, priority 2005, dated 2011).

This test concerns the target human BACE (Homo sapiens, UniProt P56817). Put plainly: Test 1: Inhibition of Human BACE. It counts as biochemical. From the text:
Test 1: Inhibition of Human BACE

pIC50: −log10 of the molar value.

human BACE, sequence (P56817 46-457 limits assumed): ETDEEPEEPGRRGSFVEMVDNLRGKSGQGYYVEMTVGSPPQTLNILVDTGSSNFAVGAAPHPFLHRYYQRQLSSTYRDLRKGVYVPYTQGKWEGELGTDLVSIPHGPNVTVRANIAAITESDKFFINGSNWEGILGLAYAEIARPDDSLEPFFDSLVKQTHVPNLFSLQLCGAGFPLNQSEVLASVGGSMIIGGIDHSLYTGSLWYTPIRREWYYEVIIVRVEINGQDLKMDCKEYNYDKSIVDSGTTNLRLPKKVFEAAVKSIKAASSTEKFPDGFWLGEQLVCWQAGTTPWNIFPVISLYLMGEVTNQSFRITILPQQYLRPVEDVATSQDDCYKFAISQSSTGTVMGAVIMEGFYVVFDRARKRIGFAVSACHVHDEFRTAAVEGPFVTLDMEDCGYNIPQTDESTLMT

Usually pIC50 stands for −log10 of the IC50, conventionally taken in molar units. In the case of `CC(=O)c1cc2cc(c1)C(=O)N[C@H]([C@H](O)CNC1(c3cccc(C(C)C)c3)CC1)Cc1cccc(c1)CCCCO2` [Example 5, (S)-18-Acetyl-4-{(R)-1-hydroxy-2-[1-(3-isopropyl-phenyl)-cyclopropylamino]-ethyl}-15-oxa-3-aza-tricyclo[14.3.1.1*6,10*]henicosa-1(20),6,8,10(21),16,18-hexaen-2-one], the pIC50 was 6.60.
